Experimental findings from publication doi:10.1101/2022.02.23.481635v1 (biorxiv, 2022) are described below.

Holding throughout (format): binding
Experiment [1] addresses T1, 14-3-3σ/TAZ complex (Homo sapiens, UniProt P31947+Q9GZV5). The experiment in a line: STD NMR. The settings on record: 300 μM fragment, 10 μM 14-3-3σ, 100 μM TAZ peptide, relative to apo-14-3-3σ.
Experiment [2] addresses T1, 14-3-3σ/TAZ complex. As to the kind of experiment: STD NMR dose response.
The target of a further experiment is 14-3-3/ABL1 complex (Homo sapiens, UniProt P00519+P31947). The experiment in a line: STD NMR dose response.
Chain of 14-3-3/ABL1 complex (P31947 whole entry, other chains not shown): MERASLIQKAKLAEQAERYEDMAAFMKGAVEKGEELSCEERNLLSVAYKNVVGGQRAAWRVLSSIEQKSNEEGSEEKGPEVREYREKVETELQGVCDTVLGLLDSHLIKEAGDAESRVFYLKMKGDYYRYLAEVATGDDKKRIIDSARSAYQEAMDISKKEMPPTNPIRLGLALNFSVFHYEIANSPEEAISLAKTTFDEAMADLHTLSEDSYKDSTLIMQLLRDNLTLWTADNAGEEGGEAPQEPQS

T1 sequence (P31947 whole entry, other chains not shown, the tested form may be a part): as the sequence (P31947 whole entry, other chains not shown) above

Consider `CCN1CCN(c2cc(C(=N)N)ccn2)CC1` [F4], for which, at 14-3-3σ/TAZ complex [1], the “fold STD signal (I+peptide / I-peptide)” value turned out to be 1.9 fold. For the compound `COC(=O)c1cccc(C(=N)N)c1` [F5], the concentration for a half-maximal effect (EC50) (commonly the concentration at which the effect is half-maximal) turned out to be 1800 ± 400 µM at 14-3-3σ/TAZ complex [2] and 8700 ± 400 µM on 14-3-3/ABL1 complex. With `N=C(N)c1cc2ccccc2o1` [F9], at 14-3-3σ/TAZ complex [2], the EC50 turned out to be 2300 ± 300 µM.
